Legend:
human Cav1.2 [1] = biological target: T1, human Cav1.2 (Homo sapiens, UniProt Q13936); assay: Sophion QPatch whole-cell voltage clamp dose-response assay, Cav1.2-HEK293(AUX) cell line (barium currents); settings: for QPatch Emax: maximal fold change of peak inward current
Method: 24 hours prior an electrophysiology experiment, doxycycline (1 μg/ml) was added to the growth medium (Table 1), and 25 μM of verapamil was co-applied to prevent calcium influx triggered cell death. Cell confluency should reach 70%-80% right before the experiment.
To harvest cells (from a T175 cm^2 flask as an example), growth media were removed completely, and the cells were rinsed with 10 mL of D-PBS. D-PBS was aspirated, and 10 mL of Detachin (Genlantis) was added and the plate was placed in a 37° C. incubator for 10 minutes. Detached cells were placed into a 15 mL conical tube and spun at 1000 rpm for 2 minutes. Supernatant was removed, and cells were re-suspended in QPatch complete media (Table 2) to desired cell density of 1.5-3 million cells per QPatch run. Each experimental run uses 1.5 mL of cells.
The cells suspension was taken to the Sophion QPatch platform that uses whole-cell voltage clamp to measure barium currents conducted through Cav1.2 on single-hole QPlates. […] A dose-response assay protocol was used to determine the maximal fold change of peak inward current (Emax) and potency (EC50) of each compound. The protocol had eight liquid periods. The first liquid period was to stabilize current amplitude, which was monitored using repetitive 200-ms voltage pulses stepping from −80 mV to 0 mV. The second liquid period was to determine baseline current amplitude in the presence of vehicle control, using a single 20-ms voltage pulse stepping from −80 mV to 0 mV. The third through eighth liquid periods were used to ascertain a 6-dose response to compound treatments, also using single 20-ms voltage pulses stepping from −80 mV to 0 mV. The EC50 was generated using the following equation Iconcentration=Ibase+(Ifull−Ibase)*c^n/(XC50^n+c^n), where c is the concentration and n is the Hill coefficient constant. Ifull is the maximal current achievable, and Ibase is 0.

human Cav1.2 [2] = biological target: T1, human Cav1.2; assay: QPatch channel biophysics assay (current-voltage relationship, V1/2, tau of inactivation), Cav1.2-HEK293(AUX) cell line; assay type: cell-based; design: expressed in transfected cells; host or cells: Flp-In 293 T-Rex (HEK293), clone 2-19B, stably transfected with pCMV6-entry-CACNA1C and pcDNA5H/FRT-TO-CACNA2D2-FCS-P2A-CACNB2
Method: Clonal isolation was achieved under Neomycin selection.
Each experimental run uses 1.5 mL of cells.
The protocol had eight liquid periods. […] The protocol had four liquid periods.

[3] = Compound exposure in wild-type mice (cerebellum and blood, mass spectrometry); settings: male, C57BL/6J, mouse, brain (cerebellum) and whole blood
Method: Compound administration and brain tissue collection. Wild-type C57BL/6J male mice were obtained from Jackson laboratories (Bar Harbor, Me.). The acute, single-dose effects of Cav1.2 activators of the present disclosure were evaluated in male eight-week old mice (n=6 mice per compound). Each compound was dissolved in 10% PEG300, 10% Solutol, 10% Cremophore EL, and 70% Phosphate Buffered Saline and administered intraperitoneal (i.p.) at a concentration of 1 mg/kg up to 30 mg/kg depending on the compound. Animals were euthanized one hour after compound administration via exsanguination under deep anesthesia. Blood was collected in EDTA tubes for downstream analysis of drug levels. Brains were rapidly removed from the skull, and the cerebral cortex and cerebellum were regionally dissected. Cerebellar samples were snap frozen in liquid nitrogen to assess compound exposure.
Quantification of compound exposure. Cerebellar tissue samples were homogenized in 4 mL of 20% acetonitrile and 80% Phosphate buffered saline for every 1 g of tissue (5× dilution). Tissue was homogenized using either of the following three methods: hand held probe system, TissueLyser system with 5 mm steel bead at a frequency of 30 s^−1 for 4 min, or OMNI Bead Ruptor Elite homogenizer for 30 seconds to 1 minute depending on tissue type. Tissue samples were added to a 96-well plate (12.5 μL sample) and processed for quantification by mass spectrometry.

cFos mRNA = cFos mRNA induction in cortex of wild-type mice (quantitative PCR); assay type: in vivo, C57BL/6J male mice; settings: one hour after administration
Method: Compound administration and brain tissue collection.
Quantification of cFos mRNA induction. Tissue homogenization was performed using TissueLyser system for 96 well plates (Qiagen). First, frozen cortical samples were thawed, removed from RNAlater, and placed into TissueLyser tubes along with Buffer RLT containing 0.5% Reagent DX and one 5 mm TissueLyser metal bead. The TissueLyser tubes were loaded into a TissueLyser II tissue homogenizer for 3 rounds of homogenization, with each round lasting 5 minutes at 30 Hz bead-beating frequency. Total RNA was purified from the homogenate using RNeasy 96 Plus kit (Qiagen), RNA concentration and A260/A280 ratio were quantified via the Nanodrop (ThermoFisher), and all samples were normalized to 100 ng/μl concentration. RNA was reverse transcribed into cDNA using the Superscript III First-strand synthesis SuperMix Kit (ThermoFisher). For each sample, 6 μl of RNA (600 ng total) was mixed with 1 μL of Oligo dT and 1 μL of annealing buffer and heated to 65° C. for 5 minutes. Next, 10 μL of 2× First-Strand Reaction Mix and 2 μL of the Enzyme mix were added to achieve a total reaction volume of 20 μL. The samples were heated to 50° C. for 50 minutes then 85° C. for 5 minutes to complete cDNA synthesis.
Quantitative PCR was performed on the cDNA samples using Quantitect Multiplex RT-PCR kit (Qiagen) in a 384-well assay format. Each PCR well contained 2 μL of cDNA (60 ng total), 10 μL of RT-PCR mastermix, 1 μL of cFos FAM Taqman probe (Mm00487425_m1 (FAM) #4351368), 1 μL of GAPDH VIC Taqman probe (Mm99999915-g1 (VIC) #4448486), 0.2 μL of Multiplex RT mix and 5.8 μl of RNase-free water. On the ViiA7 Real-Time PCR system (ThermoFisher), the samples were heated to 95° C. for 15 minutes then cycled between 94° C. for 45 seconds and 60° C. for 45 seconds for 45 cycles. cFos Ct values were exported, normalized to GAPDH Ct values, and converted to relative fold change in expression using the delta-delta Ct relative quantification method. cFos fold changes between compound treatments and vehicle were analyzed by one-way ANOVA, followed by Tukey's post-hoc comparisons.

[4] = QPatch EC50, comparative examples, known CaV1.2 activators (Table 6)
[5] = QPatch EC50, 6-point dose response, 20-ms pulses from −80 mV to 0 mV, n = 1 unless marked (* n = 2, # n = 3)
[6] = shift of half-way channel activation voltage (V1/2)

T1 sequence (Q13936 whole entry): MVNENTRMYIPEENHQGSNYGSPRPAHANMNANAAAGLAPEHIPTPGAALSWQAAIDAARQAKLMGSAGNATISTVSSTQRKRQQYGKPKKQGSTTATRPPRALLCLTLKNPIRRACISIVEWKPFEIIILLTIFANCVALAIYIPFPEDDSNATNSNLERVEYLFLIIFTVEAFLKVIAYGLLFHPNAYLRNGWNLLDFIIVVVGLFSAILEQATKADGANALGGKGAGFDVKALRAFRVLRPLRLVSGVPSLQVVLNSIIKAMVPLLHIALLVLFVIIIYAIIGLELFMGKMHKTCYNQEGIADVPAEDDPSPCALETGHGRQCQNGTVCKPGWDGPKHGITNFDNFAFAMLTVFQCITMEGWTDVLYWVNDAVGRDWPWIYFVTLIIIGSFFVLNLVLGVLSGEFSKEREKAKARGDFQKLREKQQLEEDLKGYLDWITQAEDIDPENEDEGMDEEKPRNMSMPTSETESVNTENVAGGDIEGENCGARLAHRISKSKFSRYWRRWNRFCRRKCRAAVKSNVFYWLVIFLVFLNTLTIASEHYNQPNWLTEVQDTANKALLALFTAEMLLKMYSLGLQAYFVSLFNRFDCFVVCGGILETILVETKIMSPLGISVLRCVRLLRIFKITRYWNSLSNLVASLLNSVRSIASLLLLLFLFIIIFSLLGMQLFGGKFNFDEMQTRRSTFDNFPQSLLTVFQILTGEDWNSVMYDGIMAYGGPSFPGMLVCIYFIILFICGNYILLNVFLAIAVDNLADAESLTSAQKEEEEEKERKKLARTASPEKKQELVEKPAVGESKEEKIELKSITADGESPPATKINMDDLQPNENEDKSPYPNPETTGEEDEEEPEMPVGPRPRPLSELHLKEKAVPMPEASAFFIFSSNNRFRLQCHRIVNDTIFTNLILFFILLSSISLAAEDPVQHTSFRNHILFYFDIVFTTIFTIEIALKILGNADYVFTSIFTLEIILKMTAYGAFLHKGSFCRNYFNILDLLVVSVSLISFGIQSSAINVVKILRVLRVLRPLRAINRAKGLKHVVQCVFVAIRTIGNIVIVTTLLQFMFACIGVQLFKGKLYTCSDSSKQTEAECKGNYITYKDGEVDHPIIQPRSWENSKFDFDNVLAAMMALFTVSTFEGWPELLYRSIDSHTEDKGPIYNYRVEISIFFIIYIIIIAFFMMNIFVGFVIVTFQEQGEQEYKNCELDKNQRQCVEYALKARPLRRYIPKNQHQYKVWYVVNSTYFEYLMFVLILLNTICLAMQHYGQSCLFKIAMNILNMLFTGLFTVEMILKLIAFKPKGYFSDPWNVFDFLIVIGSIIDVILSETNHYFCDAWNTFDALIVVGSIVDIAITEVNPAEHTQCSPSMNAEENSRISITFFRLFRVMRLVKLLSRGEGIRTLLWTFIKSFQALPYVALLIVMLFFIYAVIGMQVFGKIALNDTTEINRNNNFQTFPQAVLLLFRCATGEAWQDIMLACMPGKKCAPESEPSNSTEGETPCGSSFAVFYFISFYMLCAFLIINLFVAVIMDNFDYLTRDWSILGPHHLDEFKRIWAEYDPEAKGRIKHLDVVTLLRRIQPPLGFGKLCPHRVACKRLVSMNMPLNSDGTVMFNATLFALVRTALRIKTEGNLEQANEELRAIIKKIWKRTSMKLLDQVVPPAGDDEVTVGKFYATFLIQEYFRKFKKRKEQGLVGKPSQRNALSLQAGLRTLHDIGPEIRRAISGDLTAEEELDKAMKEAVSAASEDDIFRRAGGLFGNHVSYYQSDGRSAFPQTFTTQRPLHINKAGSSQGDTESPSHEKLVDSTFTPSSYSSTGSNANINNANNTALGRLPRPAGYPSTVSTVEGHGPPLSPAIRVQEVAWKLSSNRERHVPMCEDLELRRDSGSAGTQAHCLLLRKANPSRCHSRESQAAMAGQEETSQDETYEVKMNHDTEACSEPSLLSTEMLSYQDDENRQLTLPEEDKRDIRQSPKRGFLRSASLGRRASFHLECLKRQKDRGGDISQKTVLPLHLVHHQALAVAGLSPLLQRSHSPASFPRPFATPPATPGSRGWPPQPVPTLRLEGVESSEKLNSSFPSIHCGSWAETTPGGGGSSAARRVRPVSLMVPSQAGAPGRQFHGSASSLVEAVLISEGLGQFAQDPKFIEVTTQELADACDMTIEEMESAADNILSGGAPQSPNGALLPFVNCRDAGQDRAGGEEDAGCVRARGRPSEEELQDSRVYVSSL
T1 sequence (Q9NY47 19-1001 partner limits assumed): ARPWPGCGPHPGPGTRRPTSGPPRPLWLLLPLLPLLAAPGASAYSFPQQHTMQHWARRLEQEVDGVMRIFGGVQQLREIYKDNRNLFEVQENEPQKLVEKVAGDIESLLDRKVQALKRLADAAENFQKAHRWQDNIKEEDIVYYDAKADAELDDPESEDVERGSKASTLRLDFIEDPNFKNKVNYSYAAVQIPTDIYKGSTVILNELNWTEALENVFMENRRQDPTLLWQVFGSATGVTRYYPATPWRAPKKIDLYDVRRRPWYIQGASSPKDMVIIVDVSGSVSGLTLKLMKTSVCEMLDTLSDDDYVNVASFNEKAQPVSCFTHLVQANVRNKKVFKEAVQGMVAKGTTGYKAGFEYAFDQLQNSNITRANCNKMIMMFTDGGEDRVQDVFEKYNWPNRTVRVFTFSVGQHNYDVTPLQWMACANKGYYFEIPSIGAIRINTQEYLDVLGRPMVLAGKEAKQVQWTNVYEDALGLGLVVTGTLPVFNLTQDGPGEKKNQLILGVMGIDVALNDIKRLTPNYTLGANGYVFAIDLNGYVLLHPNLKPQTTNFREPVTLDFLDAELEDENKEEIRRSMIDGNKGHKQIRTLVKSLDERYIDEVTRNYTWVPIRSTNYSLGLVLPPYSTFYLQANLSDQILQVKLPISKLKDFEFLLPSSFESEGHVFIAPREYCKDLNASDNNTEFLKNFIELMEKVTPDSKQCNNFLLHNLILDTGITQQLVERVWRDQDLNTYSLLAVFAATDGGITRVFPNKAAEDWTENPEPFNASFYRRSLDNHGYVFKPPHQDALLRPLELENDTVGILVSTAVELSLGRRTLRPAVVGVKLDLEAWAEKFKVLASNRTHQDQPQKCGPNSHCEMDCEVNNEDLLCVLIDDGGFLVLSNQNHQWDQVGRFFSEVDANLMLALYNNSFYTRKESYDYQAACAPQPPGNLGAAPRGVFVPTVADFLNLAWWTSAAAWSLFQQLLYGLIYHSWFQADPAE
T1 sequence (Q9NY47 1002-1150 partner limits assumed): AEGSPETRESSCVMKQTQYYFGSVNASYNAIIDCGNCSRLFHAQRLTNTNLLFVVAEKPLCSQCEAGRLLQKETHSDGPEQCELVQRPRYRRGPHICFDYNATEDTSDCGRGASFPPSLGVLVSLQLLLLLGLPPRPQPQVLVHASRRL
T1 sequence (Q08289 whole entry partner): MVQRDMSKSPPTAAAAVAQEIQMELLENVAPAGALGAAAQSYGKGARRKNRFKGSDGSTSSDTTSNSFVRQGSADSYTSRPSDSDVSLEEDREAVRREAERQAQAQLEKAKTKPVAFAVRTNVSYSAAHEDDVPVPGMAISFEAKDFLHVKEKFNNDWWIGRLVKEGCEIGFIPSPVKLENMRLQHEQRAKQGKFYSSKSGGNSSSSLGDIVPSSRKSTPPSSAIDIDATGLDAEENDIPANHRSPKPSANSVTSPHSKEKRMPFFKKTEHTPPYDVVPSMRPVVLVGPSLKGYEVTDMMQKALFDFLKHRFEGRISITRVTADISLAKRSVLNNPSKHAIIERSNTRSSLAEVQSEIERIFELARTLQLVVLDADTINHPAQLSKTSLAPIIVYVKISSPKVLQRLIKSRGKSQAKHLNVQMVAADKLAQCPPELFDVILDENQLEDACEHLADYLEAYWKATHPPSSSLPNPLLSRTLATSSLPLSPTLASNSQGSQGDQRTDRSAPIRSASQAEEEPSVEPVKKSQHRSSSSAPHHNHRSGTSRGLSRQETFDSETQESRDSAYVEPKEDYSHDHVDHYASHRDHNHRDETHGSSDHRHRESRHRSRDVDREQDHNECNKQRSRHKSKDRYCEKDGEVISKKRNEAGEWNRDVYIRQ

Row | Structure (SMILES) | QPatch Emax (human Cav1.2 [1]; comparative examples (Table 6)) | EC50 (human Cav1.2 [1]; [5]) [nM] | QPatch Emax (human Cav1.2 [1]) | Biophysics voltage shift (human Cav1.2 [2]; [6]) [mV] | other results
1 | COC(=O)C1=C(C)NC2=C(C(=O)OC2)C1c1ccccc1C (single isomer, unassigned) [reference compound] | 1.4 |  |  |  | EC50 (human Cav1.2 [1]; [4]): 2240 nM
2 | COC(=O)C1=C(C)NC2=C(C(=O)OC2)C1c1ccccc1OC(F)F (single isomer, unassigned) [reference compound] | 1.7 |  |  |  | EC50 (human Cav1.2 [1]; [4]): 510 nM; Biophysics voltage shift (human Cav1.2 [2]; comparative examples (Table 6)): −7.1 mV
3 | COC(=O)C1=C(C)NC2=C(C(=O)OC2)C1c1ccccc1C(F)(F)F (single isomer, unassigned) [reference compound] | 1.4 |  |  |  | EC50 (human Cav1.2 [1]; [4]): 360 nM; Biophysics voltage shift (human Cav1.2 [2]; comparative examples (Table 6)): −4.3 mV
4 | CCOC(=O)C1=C(C)NC2=C(C(=O)OC2)[C@H]1c1ccccc1OC(F)F (single isomer, unassigned) [reference compound] | 2.2 |  |  |  | Kp at 1 h ([3]; intraperitoneal): 0.23; EC50 (human Cav1.2 [1]; [4]): 280 nM; Biophysics voltage shift (human Cav1.2 [2]; comparative examples (Table 6)): −6.7 mV
5 | COC(=O)C1=C(C)NC2=C(C(=O)OC2)[C@H]1c1cc(F)cc(F)c1[C@H]1CC1(F)F (single isomer, unassigned) [Example 6, Methyl (S)-4-(2-((R or S)-2,2-difluorocyclopropyl)-3,5-difluorophenyl)-2-methyl-5-oxo-1,4,5,7-tetrahydrofuro[3,4-b]pyridine-3-carboxylate] |  | 81 | 2.6 | −4.8 | 
6 | COC(=O)C1=C(C)NC2=C(C(=O)OC2)[C@H]1c1cccc(F)c1[C@H](C)F (single isomer, unassigned) [Example 10, Methyl (S)-4-(3-fluoro-2-((S or R)-1-fluoroethyl)phenyl)-2-methyl-5-oxo-1,4,5,7-tetrahydrofuro[3,4-b]pyridine-3-carboxylate] |  | 40 | 2.2 |  | % ↑cFOS mRNA cortex (3 mg/kg ip) (cFos mRNA): 204%; Kp at 1 h ([3]; ip): 0.9
7 | COC(=O)C1=C(C)NC2=C(C(=O)OC2)[C@H]1c1cccc(F)c1C1CC1 (single isomer, unassigned) [Example 4] |  | 110 | 2.1 | −4.5 | % ↑cFOS mRNA cortex (3 mg/kg ip) (cFos mRNA): 247%; % ↑cFOS mRNA cortex (10 mg/kg ip) (cFos mRNA): 398%; Kp at 1 h ([3]; ip): 1.2
8 | COC(=O)C1=C(C)NC2=C(C(=O)OC2)[C@H]1c1cccc(F)c1[C@@H](F)CF (single isomer, unassigned) [Example 11, Methyl (S)-4-(2-((R or S)-1,2-difluoroethyl)-3-fluorophenyl)-2-methyl-5-oxo-1,4,5,7-tetrahydrofuro[3,4-b]pyridine-3-carboxylate] |  | 40 | 1.4 | −6.8 | 
9 | COC(=O)C1=C(C)NC2=C(C(=O)OC2)[C@H]1c1cc(F)cc(F)c1[C@H]1CC1(F)F (single isomer, unassigned) [Example 5, Methyl (S)-4-(2-((R or S)-2,2-difluorocyclopropyl)-3,5-difluorophenyl)-2-methyl-5-oxo-1,4,5,7-tetrahydrofuro[3,4-b]pyridine-3-carboxylate] |  | 53 | 2.5 | −7.2 | 
10 | COC(=O)C1=C(C)NC2=C(C(=O)OC2)[C@H]1c1cccc(F)c1C1CC(F)C1 (single isomer, unassigned) [Example 20] |  | 86 | 1.6 | −6.1 | 
11 | COC(=O)C1=C(C)NC2=C(C(=O)OC2)[C@H]1c1cccc(F)c1C(C)(C)F (single isomer, unassigned) [Example 8] |  | 218 | 1.6 |  | 
12 | COC(=O)C1=C(C)NC2=C(C(=O)OC2)[C@H]1c1cc(F)cc(F)c1C1CC1 (single isomer, unassigned) [Example 14] |  | 65 | 1.8 | −1.9 | % ↑cFOS mRNA cortex (3 mg/kg ip) (cFos mRNA): 228%; % ↑cFOS mRNA cortex (10 mg/kg ip) (cFos mRNA): 364%; Kp at 1 h ([3]; ip): 1.7
13 | COC(=O)C1=C(C)NC2=C(C(=O)OC2)[C@H]1c1cccc(F)c1C(C)C (single isomer, unassigned) [Example 15] |  | 50 | 2 | −6.6 | % ↑cFOS mRNA cortex (3 mg/kg ip) (cFos mRNA): 169%; Kp at 1 h ([3]; ip): 1.3
14 | CCOC(=O)C1=C(C)NC2=C(C(=O)OC2)[C@H]1c1ccccc1OCc1ccccc1 (single isomer, unassigned) [reference compound] | 4.3 |  |  |  | EC50 (human Cav1.2 [1]; [4]): 450 nM; Biophysics voltage shift (human Cav1.2 [2]; comparative examples (Table 6)): −15.4 mV
15 | COC(=O)C1=C(C)NC2=C(C(=O)OC2)[C@H]1c1cccc(F)c1[C@H]1CC1(F)F (single isomer, unassigned) [Example 1, Methyl (S)-4-(2-((R or S)-2,2-difluorocyclopropyl)-3-fluorophenyl)-2-methyl-5-oxo-1,4,5,7-tetrahydrofuro[3,4-b]pyridine-3-carboxylate] |  | 130 | 2.0 | −4.5 | % ↑cFOS mRNA cortex (3 mg/kg ip) (cFos mRNA): 169%; % ↑cFOS mRNA cortex (10 mg/kg ip) (cFos mRNA): 350%; Kp at 1 h ([3]; ip): 1.1
16 | COC(=O)C1=C(C)NC2=C(C(=O)OC2)[C@H]1c1cccc(F)c1C1CCC1 (single isomer, unassigned) [Example 3] |  | 80 | 1.8 | −6.6 | 
17 | CCc1c(F)cc(F)cc1[C@H]1C(C(=O)OC)=C(C)NC2=C1C(=O)OC2 (single isomer, unassigned) [Example 12] |  | 110 | 1.4 | −7.4 | % ↑cFOS mRNA cortex (3 mg/kg ip) (cFos mRNA): 128%; Kp at 1 h ([3]; ip): 0.8
18 | COC(=O)C1=C(C)NC2=C(C(=O)OC2)[C@H]1c1cccc(F)c1CC(F)F [Example 17, (S)-methyl 4-(2-(2,2-difluoroethyl)-3-fluorophenyl)-2-methyl-5-oxo-1,4,5,7-tetrahydrofuro[3,4-b]pyridine-3-carboxylate] |  | 271 | 1.8 | −6.6 | 
19 | CCOC(=O)C1=C(C)NC2=C(C(=O)OC2)C1c1ccccc1C(F)(F)F (single isomer, unassigned) [reference compound] | 1.9 |  |  |  | EC50 (human Cav1.2 [1]; [4]): 930 nM
20 | COC(=O)C1=C(C)NC(C)=C([N+](=O)[O-])[C@H]1c1ccccc1C(F)(F)F (single isomer, unassigned) [reference compound] | 3.9 |  |  |  | 
21 | COC(=O)C1=C(C)NC2=C(C(=O)OC2)[C@H]1c1cc(F)cc(F)c1C(C)C (single isomer, unassigned) [Example 18] |  | 102 | 2.2 | −6.5 | 

From patent US11453679B2, “Methyl 2-methyl-5-oxo-1,4,5,7-tetradhydrofuro[3,4-b]pyridine-3-carboxylate compounds as Cav1.2 activators” (Novartis AG, priority 2020, dated 2022)
